Measurements reported in patent US5712265A (The General Hospital Corporation, priority 1995, dated 1998).
Counter-ions that a name gives are not always drawn. Like-named read-outs stand apart in the source and are kept apart here.

Tests used:
[1] = in vivo; cited from earlier work
[2] = tested on: 3-hydroxy-3-methylglutaryl coenzyme A (HMG-CoA) reductase; conditions: cited from earlier work
[3] = tested on: adipose tissue cyclic AMP phosphodiesterase; conditions: cited from earlier work
isolated fat cells = conditions: in vitro; cited from earlier work
[4] = for Cholesterol / HDL-Chol / Plasma Glucose / Plasma Insulin / Reproperitoneal Fat / Triglyceride: 18 days after last treatment; for Food Consumption: P 4 mg/kg or M 500 μg/kg oral, two weeks
Experimental: Forty male older Sprague-Dawley rats (6 months of age) were separated into 5 groups of 8 rats each. […] A control group (C) received peanut butter only daily at 0800 and 1800. Rat chow (Purina) was made available ad libitum. Treatment lasted two weeks. Blood samples were taken and retroperitoneal fat was dissected and weighed 18 days after the last day of treatment. This made it possible to assess long term effects of the treatment. […] All animals were fasted 6 hours prior to blood sampling and sacrifice.

[5] = 0.5 mg intramuscularly, cited from earlier work
[6] = 0.5 or 0.75 mg s.c., cited from earlier work
[7] = in vivo; cited from earlier work; remark: listed apart in the source
[8] = in vivo; cited from earlier work; remark: listed apart in the source
[9] = cited from earlier work
[10] = Timed administration of methyl scopolamine, long-term effects (Example 7); type: in vivo, Sprague-Dawley rat; conditions: for Retroperitoneal Fat: 0.5 mg/kg BW two weeks
Experimental: Methylscopolamine (MSC) (0.5 mg/kgBW) in 1 mL peanut butter was fed at light onset (AM) or at light offset (PM) to 9 Sprague-Dawley rats (30 weeks old) in each group daily for two weeks. Nine-other rats were fed only peanut butter. 18 days after the last treatment, the rats were sacrificed and the indices in Table 6 were measured.

[11] = 5 mg at 2230 h; cited from earlier work
[12] = 7.5 to 20 mg daily by mouth; cited from earlier work
[13] = 2.5 mg once, cited from earlier work
[14] = in vivo; cited from earlier work; remark: listed apart in the source
[15] = cited from earlier work; remark: listed apart in the source
[16] = 3.0 and 6.0 μg/kg intramuscularly at 11:00 pm; cited from earlier work
[17] = dosed at 0800, 18 days post-treatment
[18] = AM, 18 days after last treatment
[19] = PM, 18 days after last treatment
[20] = light-offset vs light-onset administration

## CC[C@H](C)C(=O)O[C@H]1C[C@@H](C)C=C2C=C[C@H](C)[C@H](CC[C@@H]3C[C@@H](O)CC(=O)O3)[C@H]21 [lovastatin]
[1]
  increase in HDL concentrations: 5-10%
  total cholesterol: specifically reduces total cholesterol
[2]
  HMG-CoA reductase inhibition: selectively inhibits

## CN1[C@@H]2C[C@@H](OC(=O)[C@H](CO)c3ccccc3)C[C@H]1[C@@H]1O[C@@H]12 [scopolamine hydrobromide]
[3]
  adipose tissue cyclic AMP phosphodiesterase activity: nor inhibited
Isolated fat cells
  glycerol release from isolated fat cells: did not significantly affect

## C[N+]1(C)[C@@H]2C[C@@H](OC(=O)[C@H](CO)c3ccccc3)C[C@H]1[C@@H]1O[C@@H]12 [methyl scopolamine]
[4]; dosed at 0800
  food consumption, change in words: significant increase
  Cholesterol: 96.8 ± 1.8 mg/dL
  HDL-Chol: 43.9 ± 2.7 mg/dL
  Plasma Glucose: 158 ± 4
  Plasma Insulin: 118 ± 7
  Reproperitoneal Fat: 2.18 ± 0.31 g
  Triglyceride: 90.0 ± 3.1 mg/dL
  Food Consumption: 17.5 ± 1.3 g/day
[4]; [17]
  insulin resistance (plasma insulin and glucose), in words: improved insulin resistance
  plasma lipid indices, change in words: significantly reduced retroperitoneal body fat, plasma lipid indices
  retroperitoneal body fat, change in words: significantly reduced retroperitoneal body fat
[4]; dosed at 1800
  Cholesterol: 133.6 ± 1.9 mg/dL
  HDL-Chol: 61.0 ± 1.9 mg/dL
  Plasma Glucose: 148 ± 7
  Plasma Insulin: 171 ± 14
  Reproperitoneal Fat: 2.61 ± 0.19 g
  Triglyceride: 188.0 ± 5.7 mg/dL
  Food Consumption: 14.9 ± 1.0 g/day
[4]; only with administration at 1800
  HDL-cholesterol, change in words: increase
[5]; 1/2 h before bedtime
  overall and mean peak growth hormone levels during the night: dramatically reduced
[5]
  insulin-induced hypoglycemia: did not affect sleep patterns or insulin-induced hypoglycemia
  prolactin levels during sleep: did not affect prolactin levels during sleep
  sleep patterns: did not affect sleep patterns
[6]; after physostigmine
  elevated AVP levels: decreased
  elevated cortisol levels: decreased
  elevated prolactin levels: decreased
[6]
  growth hormone secretion: inhibited
[7]
  half-life: 4 to 6 h
[8]
  effect of physostigmine on plasma pituitary hormones (cortisol, prolactin, ACTH): inhibited
[9]; chronic use of 5 mg
  tolerability: not particularly well tolerated by most patients
[9]; given at bedtime
  dawn phenomenon: attenuated
  sleep induced growth hormone secretion: suppressed
[10]; AM (light onset), 18 days after last treatment
  Retroperitoneal Fat: 2.78 ± 0.08 g
[10]; [18]
  Cholesterol: 94.7 ± 4.9 mg/dL
  Glucose: 151.8 ± 19.6 mg/dL
  HDL Cholesterol: 32.5 ± 4.1 mg/dL
  Insulin: 144.1 ± 5.9 μU/mL
  Triglycerides: 197 ± 18 mg/dL
[10]; PM (light offset), 18 days after last treatment
  Retroperitoneal Fat: 2.45 ± 0.07 g
[10]; [19]
  Cholesterol: 94.1 ± 5.7 mg/dL
  HDL Cholesterol: 45.2 ± 4.2 mg/dL
  Insulin: 163.8 ± 2.7 μU/mL
  Triglycerides: 106 ± 21 mg/dL
[10]; Table 6
  persistence after cessation of treatment: long-term effect that persists after cessation of the treatment
[10]; light onset or offset
  glucose, change in words: significantly reduced
  insulin, change in words: significantly reduced
  retroperitoneal fat, change in words: significantly reduced
[10]; [20]
  cholesterol, change in words: significantly increased cholesterol
  insulin, change in words: significantly reduced triglycerides and insulin
  triglycerides, change in words: significantly reduced triglycerides
[10]; only at light offset
  HDL, change in words: increased HDL
  triglycerides, change in words: significantly reduced
[11]
  dawn effect: decrease
  peak growth hormone concentrations after sleep: marked inhibition

## CN1CCN(CC(=O)N2c3ccccc3C(=O)Nc3cccnc32)CC1 [pirenzepine]
[7]
  half-life: about 11 hours

## CC(C)C[C@H]1C(=O)N2CCC[C@H]2[C@]2(O)O[C@](NC(=O)[C@@H]3C=C4c5cccc6[nH]c(Br)c(c56)C[C@H]4N(C)C3)(C(C)C)C(=O)N12 [bromocriptine]
[12]
  patients having aggravation: 4
  patients having improvement in glucose regulation: six
  patients showing no significant change: 14
[13]; 2 h prior to glucose challenge
  plasma glucose concentration: decrease
[13]
  Plasma Insulin: decrease with drug administration was significant
  plasma prolactin levels: decreased markedly

## CCOC(=O)C(C)(C)Oc1ccc(Cl)cc1 [clofibrate]
[14]
  effectiveness: varies from subject to subject
  side effects: nephrotic syndromes, myalgia, nausea and abdominal pain

## CN1[C@@H]2C[C@@H](OC(=O)[C@H](CO)c3ccccc3)C[C@H]1[C@@H]1O[C@@H]12 [scopolamine]
[15]; 0.01 mg/kg orally 2 h before rotation
  susceptibility to motion sickness: significantly decreased
[15]; 0.01 mg/kg orally
  hormone concentrations (ACTH, cortisol, STH, prolactin) vs placebo: identical
[16]
  rapid eye movement latency: significant dose-related delay
